This is an account of results in ChEMBL document CHEMBL4715830, “Design, synthesis and biological evaluation of suramin-derived dual antagonists of the proinflammatory G protein-coupled receptors P2Y and GPR17” (Eur J Med Chem, 2020).

Calls of active or inactive are those of the source. The rule behind the calls is not given here.

Data set [1] deals with T1, P2Y purinoceptor 14 (Homo sapiens) (UniProt Q15391).
T1 sequence (whole entry): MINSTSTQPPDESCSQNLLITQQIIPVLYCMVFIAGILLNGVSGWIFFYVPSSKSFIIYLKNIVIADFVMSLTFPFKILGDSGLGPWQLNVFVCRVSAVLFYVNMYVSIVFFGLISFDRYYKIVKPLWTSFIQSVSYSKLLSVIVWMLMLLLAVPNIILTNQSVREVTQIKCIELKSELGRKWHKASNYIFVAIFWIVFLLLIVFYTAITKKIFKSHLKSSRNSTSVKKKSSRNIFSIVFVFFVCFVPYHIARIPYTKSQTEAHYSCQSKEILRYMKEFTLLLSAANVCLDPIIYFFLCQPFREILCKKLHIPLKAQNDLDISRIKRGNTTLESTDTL
The data set is described as follows: Antagonist activity at recombinant human Gi/Go-coupled GP2Y14 receptor expressed in CHOK1 cells assessed as inhibition of […]-induced inhibition of beta-arrestin recruitment at 10 uM by pathhunter assay. Format: cell-based. On the technique in general: Activated receptors often draw arrestin, which recruitment assays turn into a signal.

The target in data set [2] is P2Y purinoceptor 12 (Homo sapiens) (UniProt Q9H244). The data set is described as follows: Antagonist activity at recombinant human Gi/Go-coupled GP2Y12 receptor expressed in CHOK1 cells assessed as inhibition of 2-(Methylthio)ADP-induced inhibition of beta-arrestin recruitment at 10 uM by pathhunter assay. Format: cell-based. The following applies: CHO-K1.
Data set [3] has as its target P2Y purinoceptor 6 (Rattus norvegicus) (UniProt Q63371). The data set is described as follows: Antagonist activity at rat P2Y6 receptor expressed in human 1321N1 cells assessed as inhibition of UDP-induced intracellular calcium influx at 10 to 100 uM preincubated for 20 mins followed by UDP addition measured at 0.4 secs interval for 60 times by Oregon Green BAPTA-1/AM dye-based fluorescence assay. Type of data set: functional, cell-based. To be noted: dose 10-100 µM.

Data set [4] concerns the target P2Y purinoceptor 1 (Homo sapiens) (UniProt P47900). The data set is described as follows: Antagonist activity at human P2Y1 receptor expressed in human 1321N1 cells assessed as inhibition of ADP-induced intracellular calcium influx at 10 uM preincubated for 20 mins followed by ADP addition measured at 0.4 secs interval for 60 times by Oregon Green BAPTA-1/AM dye-based fluorescence assay. Format: functional, cell-based. Background: A change in cytosolic calcium serves as a functional read-out for many receptors and channels.

Data set [5] addresses P2Y purinoceptor 4 (Homo sapiens) (UniProt P51582). Kind of data set: Antagonist activity at human P2Y4 receptor expressed in human 1321N1 cells assessed as inhibition of UTP-induced intracellular calcium influx at 10 to 100 uM preincubated for 20 mins followed by UTP addition measured at 0.4 secs interval for 60 times by Oregon Green BAPTA-1/AM dye-based fluorescence assay. Type of data set: functional, cell-based. The following applies: dose 10-100 µM.

For data set [6], the target named is P2Y purinoceptor 6 (Rattus norvegicus, UniProt Q63371). Kind of data set: Antagonist activity at rat P2Y6 receptor expressed in human 1321N1 cells assessed as inhibition of UDP-induced intracellular calcium influx preincubated for 20 mins followed by UDP addition measured at 0.4 secs interval for 60 times by Oregon Green BAPTA-1/AM dye-based fluorescence assay. Type of data set: functional, cell-based.

Data set [7] can be described thus: Chemical stability of compound in pH 3 MeOH/water solution measured after 24 hrs by HPLC-MS analysis. Format: physicochemical. To be noted: buffer, pH 3, 24 h.
The nature of data set [8]: Chemical stability of compound in pH 7 MeOH/water solution measured after 24 hrs by HPLC-MS analysis. Type of data set: physicochemical. The following applies: buffer, pH 7, 24 h.
A short description of data set [9]: Chemical stability of compound in pH 7 MeOH/water solution at 70 degC measured after 24 hrs by HPLC-MS analysis. Type of data set: physicochemical. The following applies: buffer, pH 7, 24 h.
Data set [10] is described as follows: Drug metabolism in pH 9 MeOH/water solution assessed as methyl 4-(2-chlorobenzamido)benzenesulfonate formation measured after 24 hrs by HPLC-MS analysis.
For data set [11], the target named is P2Y purinoceptor 2 (Homo sapiens, UniProt P41231). The data set is described as follows: Antagonist activity at human P2Y2 receptor expressed in human 1321N1 cells assessed as inhibition of ATP-induced intracellular calcium influx preincubated for 20 mins followed by ATP addition measured at 0.4 secs interval for 60 times by Oregon Green BAPTA-1/AM dye-based fluorescence assay. Format: functional, cell-based.

In data set [12] the target is T2, Uracil nucleotide/cysteinyl leukotriene receptor (Homo sapiens, UniProt Q13304). The data set is described as follows: Antagonist activity at human GPR17 expressed in human 1321N1 cells assessed as inhibition of ATP-induced intracellular calcium influx preincubated for 20 mins followed by ATP addition measured at 0.4 secs interval for 60 times by Oregon Green BAPTA-1/AM dye-based fluorescence assay. Type of data set: functional, cell-based.

For data set [13], the target named is T2, Uracil nucleotide/cysteinyl leukotriene receptor. Kind of data set: Antagonist activity at human GPR17 expressed in human 1321N1 cells assessed as inhibition of ATP-induced intracellular calcium influx at 10 uM preincubated for 20 mins followed by ATP addition measured at 0.4 secs interval for 60 times by Oregon Green BAPTA-1/AM dye-based fluorescence assay relative to control. Format: functional, cell-based.

P2Y purinoceptor 1 (Homo sapiens), sequence (P47900 whole entry): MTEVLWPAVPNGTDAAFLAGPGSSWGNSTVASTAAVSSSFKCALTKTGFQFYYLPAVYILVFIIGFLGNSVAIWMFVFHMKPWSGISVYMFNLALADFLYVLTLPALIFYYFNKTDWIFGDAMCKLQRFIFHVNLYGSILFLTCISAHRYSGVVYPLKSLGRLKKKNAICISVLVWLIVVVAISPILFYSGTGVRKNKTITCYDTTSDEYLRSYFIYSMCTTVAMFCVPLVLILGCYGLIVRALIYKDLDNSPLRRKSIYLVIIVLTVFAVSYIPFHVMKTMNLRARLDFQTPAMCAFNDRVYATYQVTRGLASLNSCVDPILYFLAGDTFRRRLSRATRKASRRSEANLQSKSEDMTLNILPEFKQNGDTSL
P2Y purinoceptor 12 (Homo sapiens), sequence (Q9H244 whole entry): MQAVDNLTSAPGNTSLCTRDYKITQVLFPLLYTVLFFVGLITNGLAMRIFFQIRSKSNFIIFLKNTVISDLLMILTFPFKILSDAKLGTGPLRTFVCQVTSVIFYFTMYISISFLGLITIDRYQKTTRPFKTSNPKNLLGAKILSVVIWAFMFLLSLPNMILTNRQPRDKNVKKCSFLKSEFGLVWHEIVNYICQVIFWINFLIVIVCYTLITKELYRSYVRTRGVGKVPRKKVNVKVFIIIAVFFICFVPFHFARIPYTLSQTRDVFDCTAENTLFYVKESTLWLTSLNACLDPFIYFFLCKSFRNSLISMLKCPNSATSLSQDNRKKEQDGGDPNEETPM
P2Y purinoceptor 4 (Homo sapiens), sequence (P51582 whole entry): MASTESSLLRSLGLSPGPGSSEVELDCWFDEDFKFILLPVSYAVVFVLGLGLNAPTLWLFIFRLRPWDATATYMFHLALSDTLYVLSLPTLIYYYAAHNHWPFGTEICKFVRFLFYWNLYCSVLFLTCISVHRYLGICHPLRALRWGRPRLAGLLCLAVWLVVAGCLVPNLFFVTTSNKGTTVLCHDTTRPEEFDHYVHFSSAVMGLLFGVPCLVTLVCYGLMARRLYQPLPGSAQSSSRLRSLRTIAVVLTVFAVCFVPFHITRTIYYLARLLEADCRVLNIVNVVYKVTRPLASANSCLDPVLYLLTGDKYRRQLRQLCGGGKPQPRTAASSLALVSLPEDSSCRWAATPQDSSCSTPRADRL
P2Y purinoceptor 6 (Rattus norvegicus), sequence (Q63371 whole entry): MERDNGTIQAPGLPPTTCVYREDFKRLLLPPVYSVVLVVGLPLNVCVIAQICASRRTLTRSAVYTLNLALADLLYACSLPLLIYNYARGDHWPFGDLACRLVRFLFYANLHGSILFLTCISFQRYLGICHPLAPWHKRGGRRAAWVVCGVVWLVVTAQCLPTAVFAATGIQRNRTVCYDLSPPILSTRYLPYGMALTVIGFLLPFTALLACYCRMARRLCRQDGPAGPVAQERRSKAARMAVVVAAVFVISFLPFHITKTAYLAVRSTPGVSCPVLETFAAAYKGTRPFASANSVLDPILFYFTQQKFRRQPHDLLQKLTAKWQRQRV
T2 sequence (Q13304 whole entry): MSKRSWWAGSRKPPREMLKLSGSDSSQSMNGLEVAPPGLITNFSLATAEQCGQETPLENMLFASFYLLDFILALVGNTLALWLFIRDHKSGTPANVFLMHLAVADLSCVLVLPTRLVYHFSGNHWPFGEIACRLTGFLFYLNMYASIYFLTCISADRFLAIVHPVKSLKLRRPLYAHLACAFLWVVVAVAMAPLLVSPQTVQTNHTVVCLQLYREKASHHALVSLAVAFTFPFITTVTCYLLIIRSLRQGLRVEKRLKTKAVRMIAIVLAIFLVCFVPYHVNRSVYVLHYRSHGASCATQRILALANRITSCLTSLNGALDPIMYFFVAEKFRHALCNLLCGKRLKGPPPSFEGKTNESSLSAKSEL
P2Y purinoceptor 2, sequence (P41231 whole entry): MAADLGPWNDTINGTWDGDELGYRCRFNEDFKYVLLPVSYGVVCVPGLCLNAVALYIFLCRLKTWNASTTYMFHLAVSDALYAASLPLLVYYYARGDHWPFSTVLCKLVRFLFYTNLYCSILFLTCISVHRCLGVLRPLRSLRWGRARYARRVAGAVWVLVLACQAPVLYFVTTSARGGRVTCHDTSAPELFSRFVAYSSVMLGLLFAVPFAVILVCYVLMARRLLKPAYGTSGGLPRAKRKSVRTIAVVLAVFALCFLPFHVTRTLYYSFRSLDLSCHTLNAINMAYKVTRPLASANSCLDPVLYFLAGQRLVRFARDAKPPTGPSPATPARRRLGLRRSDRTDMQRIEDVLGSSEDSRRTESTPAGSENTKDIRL
P2Y purinoceptor 6, sequence (Q63371 whole entry): as the sequence (Q63371 whole entry) above

As for `COC(=O)c1cccc(NC(=O)Nc2ccc(NC(=O)c3cccc(C)c3)cc2)c1`, the inhibition entry in data set [1], in data set [2], in data set [3], in [4] and in data set [5] was “inactive” in each case.
For `Cc1cccc(C(=O)Nc2ccc(S(=O)(=O)Oc3cccc([N+](=O)[O-])c3)cc2)c1`, the inhibition entry in data set [1], in data set [2], in data set [4] and in data set [5] was “inactive” throughout. Moreover, in data set [6], the IC50 (usually the concentration needed to halve the response being measured) stood at 6.19 µM.
Turning to `O=C(Nc1ccc(S(=O)(=O)Oc2cccc([N+](=O)[O-])c2)cc1)c1ccc(Cl)cc1`, the inhibition result in data set [1], in data set [2], in data set [3], in data set [4] and in data set [5] was “inactive” each time.
Regarding `O=C(Nc1ccc(S(=O)(=O)Oc2cccc([N+](=O)[O-])c2)cc1)c1cccc(F)c1`, the inhibition entry in data set [1], in [2], in data set [3], in [4] and in [5] was “inactive” in each case.
As for `Cc1cccc(C(=O)Nc2ccc(S(=O)(=O)NCc3cccc(Cl)c3)cc2)c1`, the inhibition entry in [1], in data set [2], in data set [3], in [4] and in [5] was “inactive” each time.
As to `O=C(Nc1cccc(S(=O)(=O)Oc2cccc([N+](=O)[O-])c2)c1)c1cccc(F)c1`, the inhibition result in [1], in data set [2], in data set [3], in [4] and in data set [5] was “inactive” in each case.
As for `COC(=O)c1cccc(NC(=O)Nc2cccc(C(=O)Nc3cccc(C)c3)c2)c1`, the inhibition entry in [1], in data set [2], in data set [3], in data set [4] and in data set [5] was “inactive” in each case.
For the compound `O=C(Nc1ccc(S(=O)(=O)Oc2cccc([N+](=O)[O-])c2)cc1)c1ccccc1Cl`, the Stabilty result in [7], in data set [8] and in [9] was “Stable” each time. Moreover, the inhibition result in data set [1], in data set [2], in [3], in data set [4] and in data set [5] was “inactive” throughout. For the same compound, in data set [10], the Drug metabolism came to 1.4%.
As to `Cc1cccc(C(=O)Nc2ccc(S(=O)(=O)Oc3ccc([N+](=O)[O-])cc3)cc2)c1`, the inhibition entry in data set [1], in data set [2], in data set [3], in data set [4] and in data set [5] was “inactive” in each case.
As to `Cc1ccc(C(=O)Nc2ccc(S(=O)(=O)Nc3cccc([N+](=O)[O-])c3)cc2)cc1`, the inhibition result in [1], in data set [2], in data set [3], in data set [4] and in data set [5] was “inactive” each time.
As to `Cc1cccc(NC(=O)c2cccc(NC(=O)c3ccc([N+](=O)[O-])cc3)c2)c1`, the inhibition result in data set [1], in data set [2], in data set [3], in data set [4] and in data set [5] was “inactive” each time.
Regarding `Cc1ccc(C(=O)Nc2ccc(S(=O)(=O)O)c3cc(S(=O)(=O)O)cc(S(=O)(=O)O)c23)cc1NC(=O)c1cccc(NC(=O)Nc2cccc(C(=O)Nc3cc(C(=O)Nc4ccc(S(=O)(=O)O)c5cc(S(=O)(=O)O)cc(S(=O)(=O)O)c45)ccc3C)c2)c1` [SURAMIN HEXASODIUM], the IC50 in data set [11] and in [12] was more than 100 µM in each case. The inhibition (as a rule, the share of the control response that was lost under treatment) in [13] was found to be 33%.
In the case of `O=C(Nc1ccc(S(=O)(=O)Oc2cccc([N+](=O)[O-])c2)cc1)c1cccc(C(F)(F)F)c1`, the inhibition result in data set [1], in [2], in [3], in data set [4] and in data set [5] was “inactive” each time.
Consider `Cc1cccc(NC(=O)c2ccc(NC(=O)c3ccc([N+](=O)[O-])cc3)cc2)c1`, for which the inhibition result in [1], in data set [2], in data set [3], in data set [4] and in [5] was “inactive” in each case.
